Results as given in ChEMBL document CHEMBL1201862, “PubChem BioAssay data set” (2004).
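Grown in 96-well plates, cells were treated for 48 hours with each compound at five concentrations. Insufficient inhibition: endpoint recorded as highest concentration tested. GI50 = concentration required for 50% inhibition of growth.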 Active and inactive are the calls of the source. No stated cut-off is given here; in the data, active = GI50 up to about 1.1 µM and inactive = higher.

Experiments:
Experiment in all cases: DTP human tumour cell line panel, 48 h
NCI/ADR-RES = test system: NCI/ADR-RES
EKVX = test system: EKVX
SW-620 = test system: SW-620
HT-29 = test system: HT-29
A498 = test system: A498
M14 = test system: M14
RPMI-8226 = test system: RPMI-8226
SK-MEL-2 = test system: SK-MEL-2
COLO 205 = test system: COLO 205
SN12C = test system: SN12C
Hs-578T = test system: Hs-578T
UACC-257 = test system: UACC-257
MDA-MB-435 = test system: MDA-MB-435
K562 = test system: K562
HOP-92 = test system: HOP-92
UO-31 = test system: UO-31
786-0 = test system: 786-0
MCF7 = test system: MCF7
SNB-75 = test system: SNB-75
CAKI-1 = test system: CAKI-1
LOX IMVI = test system: LOX IMVI
OVCAR-5 = test system: OVCAR-5
NCI-H522 = test system: NCI-H522
OVCAR-8 = test system: OVCAR-8
SK-MEL-28 = test system: SK-MEL-28
NCI-H23 = test system: NCI-H23
SF-268 = test system: SF-268
MOLT-4 = test system: MOLT-4
MDA-N = test system: MDA-N
PC-3 = test system: PC-3
CCRF-CEM = test system: CCRF-CEM
HCT-15 = test system: HCT-15
HL-60 = test system: HL-60
IGROV-1 = test system: IGROV-1
RXF 393 = test system: RXF 393
DU-145 = test system: DU-145
UACC-62 = test system: UACC-62
SF-295 = test system: SF-295
OVCAR-4 = test system: OVCAR-4
Malme-3M = test system: Malme-3M
SK-MEL-5 = test system: SK-MEL-5
A549 = test system: A549
SF-539 = test system: SF-539
MDA-MB-231 = test system: MDA-MB-231
ACHN = test system: ACHN
SR = test system: SR
U-251 = test system: U-251
KM12 = test system: KM12
TK-10 = test system: TK-10
NCI-H460 = test system: NCI-H460
SNB-19 = test system: SNB-19
HCT-116 = test system: HCT-116

## C[C@]12C(=O)C=CCC1=CC[C@@H]1[C@@H]2[C@H]2CC3(O)C(=O)O[C@@]4(C)[C@H]5C[C@@]6(C)[C@@H]7[C@@]2(O)[C@]1(OC[C@H]6C(=O)O5)O[C@]734 (some centres not stated)
NCI/ADR-RES
  GI50: > 100 µM (inactive)
EKVX
  GI50: 43.9 µM (inactive)
SW-620
  GI50: 35.2 µM (inactive)
HT-29
  GI50: 40.1 µM (inactive)
A498
  GI50: 54.6 µM (inactive)
M14
  GI50: 28.8 µM (inactive)
RPMI-8226
  GI50: 34.8 µM (inactive)
SK-MEL-2
  GI50: 23 µM (inactive)
COLO 205
  GI50: 39.6 µM (inactive)
SN12C
  GI50: 30.1 µM (inactive)
Hs-578T
  GI50: 51.1 µM (inactive)
UACC-257
  GI50: 59.4 µM (inactive)
MDA-MB-435
  GI50: 36.6 µM (inactive)
K562
  GI50: 38.2 µM (inactive)
HOP-92
  GI50: 68.4 µM (inactive)
UO-31
  GI50: > 100 µM (inactive)
786-0
  GI50: 34.5 µM (inactive)
MCF7
  GI50: 31.7 µM (inactive)
SNB-75
  GI50: 54.7 µM (inactive)
CAKI-1
  GI50: 40.7 µM (inactive)
LOX IMVI
  GI50: 27.4 µM (inactive)
OVCAR-5
  GI50: 29 µM (inactive)
NCI-H522
  GI50: 14.3 µM (inactive)
OVCAR-8
  GI50: 28.4 µM (inactive)
SK-MEL-28
  GI50: 28.4 µM (inactive)
NCI-H23
  GI50: 24.2 µM (inactive)
SF-268
  GI50: 37.1 µM (inactive)
MOLT-4
  GI50: 23.2 µM (inactive)
MDA-N
  GI50: 37.9 µM (inactive)
PC-3
  GI50: 41.9 µM (inactive)
CCRF-CEM
  GI50: 20.8 µM (inactive)
HCT-15
  GI50: 53.7 µM
HL-60
  GI50: 17.5 µM (inactive)
IGROV-1
  GI50: 40.1 µM (inactive)
RXF 393
  GI50: 20.2 µM (inactive)
DU-145
  GI50: 58.2 µM (inactive)
UACC-62
  GI50: 26.4 µM (inactive)
SF-295
  GI50: 57.4 µM (inactive)
OVCAR-4
  GI50: 54.3 µM (inactive)
Malme-3M
  GI50: 74.8 µM (inactive)
SK-MEL-5
  GI50: 50 µM (inactive)
A549
  GI50: > 100 µM (inactive)
SF-539
  GI50: 17.7 µM (inactive)
MDA-MB-231
  GI50: 43.7 µM (inactive)
ACHN
  GI50: 61.9 µM (inactive)
SR
  GI50: 28.4 µM (inactive)
U-251
  GI50: 34.6 µM (inactive)
KM12
  GI50: 30.5 µM (inactive)
TK-10
  GI50: 93.8 µM (inactive)
NCI-H460
  GI50: 35.8 µM (inactive)
SNB-19
  GI50: 62.4 µM (inactive)
HCT-116
  GI50: 31.8 µM (inactive)
